Patent publication US20240408094A1, “INHIBITION OF USP7 INDUCES P53-INDEPENDENT TUMOR GROWTH SUPPRESSION IN TRIPLE-NEGATIVE BREAST CANCERS BY DESTABILIZING FOXM1” (The Trustees of Columbia University in the City of New York, priority 2023, published 2024)
Where a SMILES comes first, the peptide text is derived from it. The star is where a group is joined. Cbz = O=C(OCc1ccccc1)*

What was measured:
[1] = target: T1, USP7 (Homo sapiens, UniProt Q93009); assay: USP7 protein degradation by western blot in CAL33 cells; assay type: cell-based; conditions: CAL33 and A549 cells, 2.5 μM, 48 h
T1 construct: used to treat CAL33 cells that express high levels of USP7 protein; endogenous in cells; host or cells: CAL33 (human head and neck squamous cell cancer); for A6 also the CRBN CRISPR knockout CAL33
Protocol: To specifically degrade USP7, a set of 66 PROTAC compounds were designed and synthesized that contain an USP7 specific binding moiety XL177A and an E3 ubiquitin ligase (CRBN or VHL) binding moiety connected by different linkers. All putative USP7 PROTACs were used to treat CAL33 cells that express high levels of USP7 protein, and then the USP7 protein levels were determined by western blot (FIGS. 10A and 10B). Through initial screening, PU7-1 was identified as a potential USP7 degrader (FIG. 3A and FIG. 10). […] The effect of PU7-1 was also tested in several human cancer cells harboring wild-type p53. […] In addition, to exclude the possibility that PU7-1 affects the USP7 protein levels by regulating its transcription, a quantitative real-time PCR was performed in CAL33 treated with PU7-1 for 72 h. […]
Cells were lysed in FLAG lysis buffer (50 mM Tris-HCl (pH 7.3), 137 mM NaCl, 10 mM NaF, 0.5 mM EDTA, 1% Triton X-100, 0.2% Sarkosyl, 10% glycerol) freshly supplemented with protease inhibitor cocktail. Protein concentration was determined by the Bio-Rad protein assay. […] Membranes were blocked with 5% (w/v) nonfat milk in Tris-buffered saline with Tween-20 (TBST), incubated with primary antibodies, then secondary HRP-conjugated antibodies (Jackson ImmunoResearch, 1:10000 dilution) and detected on autoradiographic films after incubating with ECL (Thermo Scientific, #32106). […]

[2] = target: T1, USP7; assay: Rescue of PU7-1-mediated USP7 degradation by pathway inhibitors in CAL33; assay type: cell-based; conditions: CAL33, 5 μM PU7-1; 5 μM MLN4924, 25 μM Chloroquine or 5 μM MG132 for 24 h
Protocol: USP7 protein levels were detected by immunoblots. […] USP7 protein levels were measured by immunoblots. […] USP7 protein levels were detected by immunoblots, then quantified by ImageJ after normalized to internal control β-actin. Half maximal degradation concentration (DC50) was calculated by Graphpad Prism.
To investigate the mechanism of action of PU7-1, CRBN knockout (KO) CAL33 cell line was generated using CRISPR-Cas9 technology. Control and CRBN KO cells were treated with 2.5 μM of PU7-1 for 72 h and then the expression levels of USP7 and CRBN proteins were detected by western blot analysis. CRBN protein was undetectable in the KO cells (FIG. 3H). […] CAL33 cells were first treated with 5 μM of PU7-1 for 48 h to degrade the USP7 proteins, and then treated with 5 μM of MLN4924, 25 μM of Chloroquine (CLQ) or 5 μM of MG132 for additional 24 h.

[3] = tested on: FOXM1; assay: Block of PU7-1-induced FOXM1 destabilization by pathway inhibitors in CAL33; assay type: cell-based, human; conditions: CAL33, 10 μM PU7-1 72 h; 1 μM MLN4924 or BafA1 24 h, 10 μM MG132 6 h

T1 sequence (Q93009 whole entry): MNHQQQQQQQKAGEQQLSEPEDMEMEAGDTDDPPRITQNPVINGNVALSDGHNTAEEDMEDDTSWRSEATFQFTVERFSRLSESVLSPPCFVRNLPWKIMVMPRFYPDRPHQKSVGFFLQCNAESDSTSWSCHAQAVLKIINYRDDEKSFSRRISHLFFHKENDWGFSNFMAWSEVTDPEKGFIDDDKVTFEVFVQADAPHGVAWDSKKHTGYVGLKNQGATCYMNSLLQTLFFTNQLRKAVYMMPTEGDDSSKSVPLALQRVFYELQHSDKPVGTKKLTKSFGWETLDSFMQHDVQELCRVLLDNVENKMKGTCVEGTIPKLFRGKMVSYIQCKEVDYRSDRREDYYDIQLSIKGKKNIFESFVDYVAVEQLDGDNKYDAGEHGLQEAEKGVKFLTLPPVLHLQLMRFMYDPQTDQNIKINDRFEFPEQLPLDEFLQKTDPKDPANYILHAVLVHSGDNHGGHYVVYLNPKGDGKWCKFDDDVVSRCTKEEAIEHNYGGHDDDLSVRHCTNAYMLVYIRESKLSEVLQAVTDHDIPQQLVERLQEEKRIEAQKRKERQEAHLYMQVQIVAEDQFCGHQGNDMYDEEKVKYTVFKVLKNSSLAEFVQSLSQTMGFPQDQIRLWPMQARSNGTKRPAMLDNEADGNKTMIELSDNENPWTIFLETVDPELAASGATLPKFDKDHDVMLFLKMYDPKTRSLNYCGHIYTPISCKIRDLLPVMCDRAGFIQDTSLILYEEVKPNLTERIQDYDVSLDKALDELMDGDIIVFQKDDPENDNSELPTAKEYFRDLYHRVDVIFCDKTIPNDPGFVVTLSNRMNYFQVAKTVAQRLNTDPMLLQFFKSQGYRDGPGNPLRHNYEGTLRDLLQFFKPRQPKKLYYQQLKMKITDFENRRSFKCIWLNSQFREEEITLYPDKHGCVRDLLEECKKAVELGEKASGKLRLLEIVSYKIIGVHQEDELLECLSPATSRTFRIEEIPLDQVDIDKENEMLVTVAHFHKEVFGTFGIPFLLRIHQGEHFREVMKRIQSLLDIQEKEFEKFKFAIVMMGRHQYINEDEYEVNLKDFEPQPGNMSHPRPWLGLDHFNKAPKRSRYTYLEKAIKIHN

Row | Structure (SMILES) | capability to degrade USP7 protein [1] | effect on USP7 degradation mediated by PU7-1 [2] | block of PU7-1-induced destabilization of FOXM1 [3]
1 | CN1C(=O)CCC(N2Cc3c(CCCCCN4CCN(CCC(=O)Nc5ccc6c(=O)n(CC7(O)CCN(C(=O)C(CCCNC(=O)c8ccc9c(Cl)c%10c(nc9c8)CCCC%10)Cc8ccccc8)CC7)cnc6c5)CC4)cccc3C2=O)C1=O (stereo not drawn) [PU7-1N, N-(4-benzyl-5-(4-hydroxy-4-((7-(3-(4-(5-(2-(1-methyl-2,6-dioxopiperidin-3-yl)-1-oxoisoindolin-4-yl)pentyl)piperazin-1-yl)propanamido)-4-oxoquinazolin-3 (4H)-yl)methyl)piperidin-1-yl)-5-oxopentyl)-9-chloro-5,6,7,8-tetrahydroacridine-3-carboxamide] | defective capability to degrade USP7 protein |  | 
2 | CC(C)C[C@@H](C=O)NC(=O)[C@H](CC(C)C)NC(=O)[C@H](CC(C)C)NC(=O)OCc1ccccc1 [MG132] (Cbz-Leu-Leu-Leu-aldehyde) |  | significantly rescued | readily blocked
3 | CCN(CC)CCCC(C)Nc1ccnc2cc(Cl)ccc12 (stereo not drawn) [Chloroquine] |  | no effect | 
4 | NS(=O)(=O)OC[C@@H]1C[C@@H](n2ccc3c(N[C@H]4CCc5ccccc54)ncnc32)C[C@@H]1O [MLN4924] |  | significantly rescued | readily blocked
